Data set [1] is described as follows: Toxicity in high multi low dose STZ-induced C57BL/6J mouse model of Type 1 diabetes assessed as effect on body weight at 50 mg/kg, po qd in presence of metformin. The class given is organism-based. The settings on record: in vivo.
Data set [2] deals with RIN-m5F. Kind of data set: Protection against IL-1beta-induced cell damage in rat RIN-m5F cells assessed as increase in cell survival at 0.03 to 0.3 uM incubated for 48 hrs by Cell Titer-Glo assay. The class given is functional, cell-based. The note with it: dose 0.03-0.3 µM. On the technique in general: Cellular ATP, detected with luciferase, serves as a proxy for viable cell number.

Data set [3] in a line: Cytotoxicity against rat RIN-m5F cells at 10 uM incubated for 72 hrs by Cell Titer-Glo assay. The class given is toxicity, cell-based.
Data set [4] is described as follows: Half life in mouse at 10 mg/kg, po measured up to 24 hrs by LC-MS/MS analysis. The class given is ADME, organism-based. The settings on record: in vivo.
Data set [5] in a line: AUC (0 to t) in Beagle dog at 10 mg/kg, po measured up to 24 hrs by LC-MS/MS analysis. The class given is ADME, organism-based, Canis lupus familiaris. On the set-up: dose 10 mg/kg, time < 24 hrs, route po. The note with it: in vivo.
Data set [6] can be described thus: Half life in Beagle dog at 10 mg/kg, po measured up to 24 hrs by LC-MS/MS analysis. The data set is classed as ADME, organism-based, Canis lupus familiaris. The note with it: in vivo.
For data set [7], the system named is Mus musculus. Kind of data set: Antidiabetic activity in high fat diet-STZ-induced C57BL/6J mouse model of type 2 diabetes assessed as reduction in HbA1c level at 250 mg/kg, po qd administered in presence of metformin (reference value: 8.6 %). The data set is classed as functional. The arrangement: scale not given: the % may be the effect or the level left.
Data set [8] is described as follows: Toxicity in high fat diet-STZ-induced C57BL/6J mouse model of type 2 diabetes assessed as effect on pancreas morphology at 50 mg/kg, po qd by H and E staining based analysis. The data set is classed as organism-based. The settings on record: in vivo.
Data set [9] concerns Mus musculus. Kind of data set: Antidiabetic activity against multi low dose STZ-induced C57BL/6J mouse model of type 1 diabetes assessed as food intake at 50 mg/kg, po administered for 1 to 2 days in presence of metformin (reference value: 4.5 g/day). The data set is classed as functional. The settings on record: time 1-2 day.
Data set [10] deals with Mus musculus. Kind of data set: Antidiabetic activity against multi low dose STZ-induced C57BL/6J mouse model of type 1 diabetes assessed as food intake at 50 mg/kg, po administered for 78 to 79 days (reference value: 4.7 g/day). The data set is classed as functional. The note with it: time 78-79 day.
Data set [11] addresses T1, Serine/threonine-protein kinase Nek3 (Homo sapiens) (UniProt P51956).
T1 sequence (whole entry): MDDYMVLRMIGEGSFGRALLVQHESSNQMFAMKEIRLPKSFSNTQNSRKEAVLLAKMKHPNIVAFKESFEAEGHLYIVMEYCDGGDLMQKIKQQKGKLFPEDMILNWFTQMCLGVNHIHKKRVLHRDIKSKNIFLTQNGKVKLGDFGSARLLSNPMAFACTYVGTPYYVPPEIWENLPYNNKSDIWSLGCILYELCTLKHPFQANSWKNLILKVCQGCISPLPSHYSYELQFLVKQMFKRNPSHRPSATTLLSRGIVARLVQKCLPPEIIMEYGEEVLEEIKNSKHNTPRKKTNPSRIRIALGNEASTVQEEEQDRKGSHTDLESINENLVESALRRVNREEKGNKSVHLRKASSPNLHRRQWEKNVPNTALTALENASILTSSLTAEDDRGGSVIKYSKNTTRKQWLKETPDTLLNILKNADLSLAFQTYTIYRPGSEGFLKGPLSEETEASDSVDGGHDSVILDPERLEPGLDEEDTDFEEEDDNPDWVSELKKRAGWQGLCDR
Briefly: Binding affinity to wild-type human full length NEK3 (M1 to R506 residues) expressed in mammalian expression system at 1 uM by Kinomescan method.

Data set [12] in a line: Cmax in Beagle dog at 10 mg/kg, po measured up to 24 hrs by LC-MS/MS analysis. The data set is classed as ADME, organism-based, Canis lupus familiaris. The arrangement: time < 24 hrs, dose 10 mg/kg, route po. The note with it: in vivo.
Data set [13] can be described thus: Clearance in mouse plasma at 50 mg/kg, po measured up to 24 hrs by LC-MS/MS analysis. The data set is classed as ADME, organism-based.
Data set [14] has as its target T2, Serine/threonine-protein kinase 4 (Homo sapiens, UniProt Q13043).
T2 sequence (Q13043 whole entry): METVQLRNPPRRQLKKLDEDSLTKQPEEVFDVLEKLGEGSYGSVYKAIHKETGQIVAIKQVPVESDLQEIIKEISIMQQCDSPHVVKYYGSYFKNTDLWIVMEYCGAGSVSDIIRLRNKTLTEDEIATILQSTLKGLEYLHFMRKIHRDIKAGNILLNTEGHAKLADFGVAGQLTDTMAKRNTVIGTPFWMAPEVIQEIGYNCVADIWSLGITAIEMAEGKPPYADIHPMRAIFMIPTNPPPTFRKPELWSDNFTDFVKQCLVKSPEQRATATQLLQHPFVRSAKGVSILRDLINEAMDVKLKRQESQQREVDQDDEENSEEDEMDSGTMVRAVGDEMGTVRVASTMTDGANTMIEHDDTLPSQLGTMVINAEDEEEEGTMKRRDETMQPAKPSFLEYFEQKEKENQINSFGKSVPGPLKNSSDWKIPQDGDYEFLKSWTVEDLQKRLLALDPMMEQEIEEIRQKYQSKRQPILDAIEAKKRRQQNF
Kind of data set: Inhibition of recombinant full length N-terminal GST -tagged human MST1 expressed in baculovirus infected Sf9 insect cells using KKSRGDYMTMQIG as substrate incubated for 1 hr in presence of ATP by ADP-Glo luminescent assay.

Data set [15] in a line: Toxicity in multi low dose STZ-induced C57BL/6J mouse model of type 1 diabetes assessed as effect on pancreas morphology at 50 mg/kg, po qd by H and E staining based analysis. The settings on record: in vivo. The data set is classed as organism-based.
Data set [16] can be described thus: Oral bioavailability in Sprague-Dawley rat at 10 mg/kg measured up to 24 hrs by LC-MS/MS analysis. The class given is ADME, organism-based. The note with it: in vivo.
Data set [17] relates to Serine/threonine-protein kinase 4 (Rattus norvegicus). Briefly: Inhibition of TNF-alpha-stimulated MST1 in rat RIN-m5F cells assessed as reduction in MOB1 autophosphorylation incubated for 12 hrs by Western blotting analysis. The settings on record: dose 0.1-10 µM, DDE = dose-dependent effect.
Data set [18] has as its system INS1. Briefly: Protection against IL-1beta-induced cell damage in rat INS1 cells assessed as increase in cell survival at 0.03 to 0.3 uM incubated for 48 hrs by Cell Titer-Glo assay. The class given is functional, cell-based. The note with it: dose 0.03-0.3 µM.
The subject of data set [19] is Mus musculus. Briefly: Antidiabetic activity against 8 hrs fasted multi low dose STZ-induced C57BL/6J mouse model of type 1 diabetes assessed as decrease in fasting blood glucose level at 50 mg/kg, po administered measured immediately (reference value: 19.3 mmol/L). The class given is functional.
The test system of data set [20] is RIN-m5F. Briefly: Protection against IFN-gamma-induced cell damage in rat RIN-m5F cells assessed as increase in cell survival at 0.03 to 0.3 uM incubated for 48 hrs by Cell Titer-Glo assay. The class given is functional, cell-based. The note with it: dose 0.03-0.3 µM.
The nature of data set [21]: Cmax in mouse at 10 mg/kg, po measured up to 24 hrs by LC-MS/MS analysis. The data set is classed as ADME, organism-based. On the set-up: dose 10 mg/kg, time < 24 hrs, route po. The note with it: in vivo.
Data set [22] can be described thus: AUC (0 to t) in mouse at 1 mg/kg, iv measured up to 12 hrs by LC-MS/MS analysis. The data set is classed as ADME, organism-based. On the set-up: time < 12 hrs, dose 1 mg/kg, route iv. The settings on record: in vivo.
Data set [23] in a line: Half life in Beagle dog at 1 mg/kg, iv measured up to 12 hrs by LC-MS/MS analysis. The note with it: in vivo. The data set is classed as ADME, organism-based, Canis lupus familiaris.

The values below come from ChEMBL document CHEMBL5137114, “Discovery of IHMT-MST1-58 as a Novel, Potent, and Selective MST1 Inhibitor for the Treatment of Type 1/2 Diabetes” (J Med Chem, 2022).

pIC50: −log10 of the molar value. The source made the active and inactive calls. The calls are words filed in the database; no cut-off is given here.

For orientation: half-life means how long it takes for the measured level to halve. The AUC(0-t) is the area under the concentration-time curve up to a stated or last time point. As usually defined, the Cmax is the maximum level reached in the sampled fluid or tissue. By CL/F is commonly meant clearance divided by bioavailability, as obtained after extravascular dosing. The term pIC50 denotes the negative decadic logarithm of the IC50, by convention in mol/L. For `Cc1ccccc1C1C(=O)N(C)c2cnc(Nc3ccc(S(N)(=O)=O)cc3)nc2N1C` (stereo not drawn), the Activity entry is “Non-Toxic” in data set [1]; “Non-Toxic” in data set [3]; 5.9% in [7]; “Non-Toxic” in data set [8]; 5.4 g/day in data set [9]; 4 g/day in [10]. The Activity entry is “Non-Toxic” in data set [15] and 19.4 mmol/L in [19]. Moreover, the result in [2], in [11], in data set [18] and in [20] was Active. For the same compound, the half-life in [4] is 1.81 h; in [6], 5.79 h; in [23], 6.47 h. In data set [5], this compound showed an AUC(0-t) at 24 h of 4940 ng·h/mL. The peak concentration (Cmax) in data set [12] was 1110 ng/mL; in [21], 1920 ng/mL. The compound further had a CL/F in data set [13] of 62.2 mL/min/kg. The pIC50 in data set [14] was 7.64. Moreover, in [16], the F was determined as 73.3%. In addition, in [17], the inhibition result was “Dde”. Moreover, the AUC(0-t) at 12 h in data set [22] came out at 501 ng·h/mL.
